Our source for the Kd values is article PMC9853864, “Nonspecific Binding of Adenosine Tripolyphosphate and Tripolyphosphate Modulates the Phase Behavior of Lysozyme” (Journal of the American Chemical Society, 2023).

The experiment deals with T1, hen egg-white lysozyme (HEWL); chicken egg lysozyme (Gallus gallus, UniProt P00698).
T1 construct: gene LYZ
Description: 1H NMR titration, Trp imino CSP (W62, W111, W123), […] fit. The format is binding.

T1 sequence (P00698 19-147): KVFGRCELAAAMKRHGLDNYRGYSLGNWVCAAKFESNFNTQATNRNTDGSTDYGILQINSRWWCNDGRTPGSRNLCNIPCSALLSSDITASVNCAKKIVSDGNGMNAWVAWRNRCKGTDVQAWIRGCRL

One may read the Kd as the concentration at which binding is half-saturated. Compound `O=P(O)(O)OP(=O)(O)OP(=O)(O)O` [TPP] returned a Kd of roughly 1000 µM.
